Measured values published in PMC9965539, “Adverse Toxic Effects of Tyrosine Kinase Inhibitors on Non-Target Zebrafish Liver (ZFL) Cells” (International Journal of Molecular Sciences, 2023).
Where two headings read alike, the source gives them in different places.

What was measured:
[1] = test system: primary human hepatocytes; conditions: cited from earlier work
[2] = test system: certain target cancer cells; set-up: method as in ref 56, 57 (DAS), 58, 59 (REG); conditions: in vitro; 57 (DAS), 58, 59 (REG); cited from earlier work
mammalian cells = test system: mammalian cells; set-up: method as in EMEA documents (69); conditions: ref EMEA documents (69); cited from earlier work
[3] = test system: zebrafish liver cells (ZFL); experiment: MTS assay, viability of ZFL cells; format: cell-based; conditions: 24, 48, 72 h; dose- and time-dependent; ERL and NIL up to their maximum solubility
Method: (§1) The viability of ZFL cells after 24, 48, and 72 h of exposure to TKIs was determined using the tetrazolium-based (MTS) assay (Cell Titer 96 AQueous Non-Radioactive Cell Proliferation Assay; Promega, Madison, WI, USA) as previously described by Novak et al.. Cells were seeded in 96-well microtiter plates (Corning Costar Corporation, New York, NY, USA) at a density of 7000 cells/well. […] Three independent experiments were performed, each with five replicates per treatment point. The statistical significance between the treated groups and the solvent control was determined by Student’s t-test using GraphPad Prism V6 (GraphPad Software, La Jolla, CA, USA). *** (p < 0.001)was considered statistically significant.

[4] = MTS assay, viability of ZFL cells; format: cell-based, zebrafish; conditions: zebrafish, ZFL cells (zebrafish liver cell line), ZFL cells, read-out: IC50 for TKIs Cytotoxicity (95% Confidence Interval); for IC50 at 24 h: 24 h exposure; for IC50 at 48 h: 48 h exposure; for IC50 at 72 h: 72 h exposure
Method: as §1

rats = test system: rats; set-up: method as in EMEA documents (69); conditions: ref EMEA documents (69); cited from earlier work
primary rat hepatocytes = conditions: cited from earlier work
[5] = test system: zebrafish liver cells (ZFL); experiment: Micronucleus detection by flow cytometry; format: cell-based; conditions: 72 h
Method: ZFL cells were seeded onto 24-well culture plates (Nunclon) at a density of 35,000 cells per well for 24 h. […] Etoposide (0.17 μM and 0.68 μM) was used as a positive control. After 72 h, cells were placed on ice for 20 min, and subsequently a 0.05 mg/mL EMA solution was added to each well. The cells were placed on ice for 30 min and exposed to light for photoactivation of the EMA fluorochrome. Afterwards, cells were washed and resuspended in lysis solution (0.584 mg/mL NaCl, 1 mg/mL sodium citrate, and 0.3 μL/mL Triton X-100) containing 0.2 μM SYTOX Green and 0.25 mg/mL RNAse A, and incubated for 1 h in the dark at 37 °C. After incubation, lysis solution (85.6 mg/mL sucrose and 15 mg/mL citric acid) containing 0.2 μM SYTOX Green was added to the wells of the plate and incubated for a further 30 min at room temperature in the dark. Cells were analyzed on the same day using MACSQuant Analyzer 10 flow cytometer. MASCQuantify Software 2.11. was used to analyze each sample, and the percentage of micronuclei was determined after the acquisition of a total of 20,000 gated nuclei events, excluding EMA-positive events. One-way ANOVA with post hoc multiple comparison Dunett’s test using GraphPad Prism V6 (GraphPad Software, Carlsbad, CA, USA) was carried out. * p < 0.05 and *** p < 0.0001 were considered statistically significant.

[6] = test system: zebrafish liver cells (ZFL); experiment: Propidium iodide live/dead staining by flow cytometry; format: cell-based
Method: Benzo[a]pyrene (50 μM), an indirect-acting genotoxic agent which requires metabolic activation for its genotoxic effects, and etoposide (0.17 μM), a direct-acting genotoxic agent, were selected as positive controls. After 72 h, floating and adherent cells were collected, resuspended in ice-cold 1x PBS, and immediately analyzed. Propidium iodide (PI) at a final concentration of 1 μg/mL was added to the cells 5 min before the start of measurements using the MACSQuant Analyzer 10 flow cytometer (Miltenyi Biotech, Bergisch Gladbach, Germany). MASCQuantifiy software (Miltenyi Biotech, Bergisch Gladbach, Germany) was used to quantify PI negative and positive cells. The experiments were repeated three times independently. Statistical significance between the treated groups and control was determined by one-way ANOVA with post hoc multiple comparison Dunett’s test using GraphPad Prism V6 (GraphPad Software, La Jolla, CA, USA). * p < 0.05 was considered statistically significant.

[7] = test system: zebrafish liver cells (ZFL); experiment: Cell cycle analysis with flow cytometry; format: cell-based; conditions: 72 h; for effect on cell cycle progression: concentration-dependent, parallel decrease in S-phase fraction
Method: ZFL cells were seeded onto T25 culture plates at a density of 450,000 cells for 24 h. […] The positive control was etoposide (0.17 μM), which is known to arrest cells in the G2/M phase of the cell cycle. After 72 h, cells were trypsinized (0.25% trypsin-EDTA) and washed with 1x PBS before fixation in 4% paraformaldehyde (PFA). For flow cytometric analysis, fixed cells were washed in cold 1x PBS and stained with Hoechst 33258 dye (diluted in 0.1% Triton X-100 1:500) as described by Stampar et al.. Flow cytometric measurements were performed using a MACSQuant Analyzer 10 and the experiment was repeated three times independently. Each time, 20,000 single cells were recorded per experimental point. The data obtained were analyzed using FlowJo V10 software (Becton Dickinson, Franklin Lakes, NJ, USA). Statistical analysis for cell cycle was performed by the two-way ANOVA with Fisher’s LSD test using GraphPad Prism V6 (GraphPad Software, La Jolla, CA, USA). * p < 0.05, ** (p < 0.01), *** (p < 0.001) were considered statistically significant.

HepG2 cells [8] = conditions: 20 μM; ref Mingard et al. 46; cited from earlier work
[9] = test system: targeted and non-targeted human chronic myeloid leukemia cancer cells; set-up: method as in doi:10.1182/blood.V124.21.5510.5510; conditions: therapeutic concentrations (NIL 48 h); cited from earlier work
HepG2 cells [10] = test system: HepG2 cells; set-up: method as in PMID 32913557; conditions: 1 µM for 24 h; cited from earlier work
[11] = test system: human hepatocellular carcinoma SMMC-7721 cells; conditions: approximately 5 μM, 24 h; cited from earlier work
[12] = test system: Huh7, A549 and MCF-7 cells; conditions: cited from earlier work
HepG2 cells [13] = test system: HepG2 cells; set-up: method as in PMID 32397371; conditions: 48 h exposure; cited from earlier work
[14] = test system: human hepatocellular carcinoma SK-HEP-1 cells; conditions: approximately 10 μM, 24 h; cited from earlier work
Huh-7 cells [15] = test system: Huh-7 cells; set-up: method as in PMID 32397371; conditions: 48 h exposure; cited from earlier work
[16] = test system: human colon adenocarcinoma HT-29 cell line; conditions: 16 uM for 12 h; cited from earlier work
Huh-7 cells [17] = conditions: 72 h; cited from earlier work
Swiss albino mice = conditions: cited from earlier work
mice = test system: mice; set-up: method as in EMEA documents (69); conditions: ref EMEA documents (69); cited from earlier work
[18] = test system: liver of male albino rats; set-up: method as in ref 64 = [64]; 64. Diab A.A.A. El-aziz S.A.A. Hendawy A.A. Hamza R.Z. Salim D.M.M. Protective Effect of Antioxidants Combinations (Vit A, C, E and Selenium) (Antox Drug) against Oxidative Stress and Cellular Toxicit; conditions: 10 mg/kg body weight daily for two weeks; cited from earlier work

Cc1nc(Nc2ncc(C(=O)Nc3c(C)cccc3Cl)s2)cc(N2CCN(CCO)CC2)n1 [DAS, dasatinib]
cytotoxicity [1]: not to primary human hepatocytes
DNA damage assessed by comet assay [2]: induce DNA damage
structural chromosomal aberrations (mammalian cells): increased the number of structural chromosomal aberrations
viability of the ZFL cells [3]: reduced
IC50 at 24 h [4]: 0.64 µM
IC50 at 48 h [4]: 0.24 µM
IC50 at 72 h [4]: 0.16 µM
in vivo micronucleus assay (rats): negative
IC50 (primary rat hepatocytes; 48 h exposure, read-out: 50% growth inhibition): 21.1 µM
cytotoxicity (primary rat hepatocytes): cytotoxic only to primary rat hepatocytes
MNi in representative dot plot ([5]; 0.015 μM): increased amount of MNi
MNi in representative dot plot ([5]; 0.03 μM): increased amount of MNi
MNi in representative dot plot ([5]; 0.06 μM): low amount of nuclei and MNi
FSC/SSC dot plot shift, apoptosis ([6]; all tested DAS concentrations (0.015-0.06 μM), 72 h): induction of apoptosis
exposed cells degraded ([6]; lowest DAS concentration (0.015 μM), 72 h): more than 50%
concentration that induced G0/G1 cell cycle arrest with decrease in number of cells in S phase [7]: 0.03 µM
effect on cell cycle progression [7]: arrest of the cell cycle in the G0/G1 phase
apoptosis (HepG2 cells [8]): induced apoptosis
centromere positive micronuclei [9]: increased the number of centromere positive micronuclei

CNC(=O)c1cc(Oc2ccc(NC(=O)Nc3ccc(Cl)c(C(F)(F)F)c3)cc2)ccn1 [SOR, sorafenib]
DNA strand breaks (alkaline comet assay) (HepG2 cells [10]): did not significantly increase
MNi formation [11]: did not increase MNi formation
DNA damage in vitro [12]: induced DNA damage
IC50 ([1]; 24 h): 10 µM
concentration with significant change in cell viability (HepG2 cells [13]): 5 µM
MNi formation [14]: did not increase MNi formation
structural chromosomal aberrations (mammalian cells): increased the number of structural chromosomal aberrations
concentration with significant change in cell viability (Huh-7 cells [15]): 2 µM
DNA double strand breaks (neutral comet assay) [16]: did not significantly increase DNA double strand breaks
viability of the ZFL cells [3]: reduced
IC50 at 24 h [4]: 6.93 µM
IC50 at 48 h [4]: 3.36 µM
IC50 at 72 h [4]: 2.71 µM
concentration with cell cycle arrest (Huh-7 cells [17]): 3.7 µM
increase in MNi formation (Swiss albino mice): approximately 10 fold
in vivo micronucleus assay (mice): negative
DNA damage in liver (comet assay in vivo) [18]: induced DNA damage
IC50 (primary rat hepatocytes; 24 h, read-out: IC50): 5.46 µM
MNi frequency ([5]; non-cytotoxic concentrations): did not significantly increase
percentage of PI negative cells ([6]; 72 h exposure, low concentrations): did not significantly decrease
concentration that induced G0/G1 cell cycle arrest with decrease in number of cells in S phase [7]: 1 µM
effect on cell cycle progression [7]: arrest of the cell cycle in the G0/G1 phase
